Data published in PMC2867821 (Molecular Cancer, 2010).
Where two headings read alike, the source gives them in different places. Residues, ends and D or L forms follow the SMILES beside them. *: point of attachment. Cbz = O=C(OCc1ccccc1)*; CH2F = FC*

How the values were obtained:
[1] = test system: SK-MEL-110; assay: RGDS anti-proliferative effect after pre-treatment with caspase inhibitor; type: cell-based, human; conditions: Z-VAD-FMK 50 μM, 2 h pre-treatment, then RGDS; p < 0.005 vs FGF-2 in the presence of Z-VAD-FMK
[2] = target: T1, GST-C-terminus-survivin (Lys90-Asp142) (Homo sapiens, UniProt O15392); assay: Solid phase assay, GST-fusion protein; type: binding
T1 construct: C-terminus (Lys90-Asp142); made in house; host or cells: E. coli BL21(DE3)pLysS
Protocol: (§1) Three independent experiments were performed.
(§2) Full length survivin and both N-terminus (Met1-Gly99) or C-terminus (Lys90-Asp142) were PCR amplified and cloned, using EcoRI and BamHI restriction sites, in pGex6P2 (GE Healthcare) for expression of GST fusion proteins in E. coli BL21(DE3)pLysS (PROMEGA, Southampton, United Kingdom).
(§3) Briefly, microtiter plates (Costar, Cambridge, MA) were coated with 175 nM (100 μl/well) recombinant GST-fusion proteins diluted in AC7.5 buffer for 4 h at RT. […] After washing four times and incubation for 1 h at RT with 100 μl/well Vectastain-ABC Reagent (Vector Laboratories, Burlingame, CA), wells were stained with the ELISA Amplification System (Invitrogen, Carlsbad, CA) according to manufacturer's instructions and absorption at 495 nm (A495) was determined. Specific binding was computed by subtracting nonspecific from total binding at each concentration. Curve fit was carried out according to the following one-site specific bind equation (GraphPad Prism-4 software):(1) [drawing 1]
(§4) where X is ligand concentration, Y is the specific binding, Bmax is the maximum specific binding in the same units as Y, Kd is the equilibrium binding constant, in the same units as X.

[3] = test system: SK-MEL-110
[4] = test system: SK-MEL-110 and HUVEC
Protocol: Cytoplasmic lysates were spotted onto nitrocellulose, blocked with 5% milk in TPBS (0.1% Tween 20 in PBS) and incubated for 1 h at RT with a Vectastain ABC-peroxidase kit (Vector) followed by chemiluminescence reaction and exposure to Kodak film (Eastman Kodak). Interaction was quantified by densitometry (GS 710; Bio-Rad) and analyzed using the "Quantity one" software (Bio-Rad).
Three independent experiments were carried out.

[5] = test system: SK-MEL-110; assay: Proliferation of SK-MEL-110 on collagen-IV with FGF-2 (cell count); type: cell-based, human; conditions: 500 μg/ml, 48 h, FGF-2 10 ng/ml
Protocol: Representative images are reported. […] Three independent experiments were performed.

[6] = target: GST-Full length survivin (Homo sapiens, UniProt O15392); assay: Solid phase assay, GST-fusion protein; type: binding; set-up: Full length survivin and both N-terminus (Met1-Gly99) or C-terminus (Lys90-Asp142) were PCR amplified and cloned; made in house; host or cells: E. coli BL21(DE3)pLysS
Protocol: as §1, §2, §3, §4

[7] = test system: SK-MEL-110; assay: Peptide internalization in SK-MEL-110 by FACS (PE-avidin); conditions: biotinylated peptide
[8] = test system: active caspase-3; assay: Caspase-3 activation by confocal microscopy; type: cell-based, human; conditions: 500 μg/ml, 48 h, FGF-2; anti-active caspase-3 antibody
[9] = test system: survivin; set-up: method as in PMID 17389612, PMID 18537980; conditions: wide range of tumor cells; cited from earlier work

T1 sequence (O15392 90-142): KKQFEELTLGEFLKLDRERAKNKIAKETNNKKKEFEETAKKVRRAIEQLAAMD
Sequence of GST-Full length survivin (O15392 whole entry, the tested form may be a part): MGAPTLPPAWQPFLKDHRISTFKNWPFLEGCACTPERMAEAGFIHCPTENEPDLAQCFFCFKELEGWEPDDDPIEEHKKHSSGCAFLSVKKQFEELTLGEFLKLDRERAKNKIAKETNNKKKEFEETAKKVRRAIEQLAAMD

COC(=O)C[C@H](NC(=O)[C@H](C)NC(=O)[C@@H](NC(=O)OCc1ccccc1)C(C)C)C(=O)CF [Z-VAD-FMK] (Cbz-Val-Ala-Asp(OMe)-CH2F)
effect on RGDS anti-proliferative action [1]: significantly abolished the RGDS anti-proliferative effect

NC(N)=NCCC[C@H](N)C(=O)NCC(=O)N[C@@H](CC(=O)O)C(=O)N[C@@H](CO)C(=O)O [RGDS, Arg-Gly-Asp-Ser]
Kd [2]: 30 µM | internalization kinetics [3]: in a time-dependent manner | internalization in melanoma cells vs HUVEC [4]: markedly higher in melanoma cells vs HUVEC | inhibition of FGF-2-induced proliferation ([5]; collagen-IV 50 μg/ml, mean ± SD of 5 experiments in duplicate, RGDS p < 0.005): 46 ± 16% | Kd [6]: 27.5 µM

Arg-Gly-Glu-Ser [RGES, RGES as control (Sigma-Aldrich)]
internalization relative to RGDS (less than RGDS) ([7]; 24 h, RGES less than RGDS): 25% | positive cells (internalization) ([7]; 24 h incubation, PE-avidin, FACS, three independent experiments): about 30% | internalization kinetics ([7]; 2, 6, 16 and 24 h, FACS): internalized with slower kinetics | anti-proliferative effect ([5]; collagen-IV): no anti-proliferative effect | caspase-3 activation [8]: no effect on caspase-3 activation

Cc1ccc(-c2cc(C(F)(F)F)nn2-c2ccc(S(N)(=O)=O)cc2)cc1 [colecoxib]
survivin expression [9]: down-regulate survivin expression
